Assay results: US8138340B2, “Bicyclononene derivatives” (Actelion Pharmaceuticals Ltd., priority 2004, dated 2012)

Molecular target: T1, recombinant human renin (Homo sapiens, UniProt P00797)
T1 sequence (P00797 67-406): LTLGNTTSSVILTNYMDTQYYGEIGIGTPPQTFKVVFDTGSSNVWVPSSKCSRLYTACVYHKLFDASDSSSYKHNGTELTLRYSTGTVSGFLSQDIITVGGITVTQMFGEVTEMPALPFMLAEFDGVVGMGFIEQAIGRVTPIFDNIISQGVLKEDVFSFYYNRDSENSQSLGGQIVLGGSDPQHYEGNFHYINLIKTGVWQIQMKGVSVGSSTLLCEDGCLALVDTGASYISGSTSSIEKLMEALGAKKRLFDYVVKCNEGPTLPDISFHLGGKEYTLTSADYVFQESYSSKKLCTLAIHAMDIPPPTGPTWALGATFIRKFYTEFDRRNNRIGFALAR
Experiment: Primary renin inhibition assay: IC50 in buffer, 384 well MTP (AngI quantified by EIA)
Assay type: biochemical
Settings: human tetradecapeptide substrate, assay buffer pH 7.4, 37° C. for 3 h
Protocol: 1. Enzyme Immuno Assay (EIA) to Estimate AngI Accumulation and Renin Inhibition
1.1 Preparation of AngI-BSA Conjugate
1.3 mg (1 μmol) of AngI [1-10 (Bachem, H-1680)] and 17 mg (0.26 μmol) of BSA (Fluka, 05475) were dissolved in 4 mL of 0.1M phosphate buffer, pH 7.4, after which 2 mL of a 1:100 dilution of glutaraldehyde in H2O (Sigma G-5882) was added dropwise. The mixture was incubated overnight at 4° C., then dialyzed against 2 liters of 0.9% NaCl, twice for 4 h at rt, followed by dialysis against 2 liters of PBS 1× overnight at rt. The solution was then filtered with a Syringe filter, 0.45 μm (Nalgene, Cat. No. 194-2545). The conjugate can be stored in polypropylene tubes in 0.05% sodium azide at 4° C. for at least 12 months.
1.2 Preparation of BSA-AngI Coated MTP
Microtiter plates (MPT384, MaxiSorp™, Nunc) were incubated overnight at 4° C. with 80 μl of AngI (1-10)/BSA conjugate, diluted 1:100'000 in PBS 1× in a teflon beaker (exact dilution dependent on batch of conjugate), emptied, filled with 90 μl of blocking solution [0.5% BSA (Sigma A-2153) in PBS 1×, 0.02% NaN3], and incubated for at least 2 h at rt, or overnight at 4° C. 96 well MTP (MaxiSorp™, Nunc) were coated with […] conjugate and blocked with 250 μl blocking solution as above, except that the blocking solution contained 3% BSA. The plates can be stored in blocking solution at 4° C. for 1 month.
1.3 AngI-EIA in 384 well MTP
The AngI (1-10)/BSA coated MTP were washed 3 times with wash buffer (PBS 1×, 0.01% Tween 20) and filled with 75 μl of primary antibody solution (anti-AngI antiserum, pre-diluted 1:10 in horse serum), diluted to a final concentration of 1:100'000 in assay buffer (PBS 1×, 1 mM EDTA, 0.1% BSA, pH 7.4). 5 μl of the renin reaction (or standards in assay buffer) (see below) were added to the primary antibody solution and the plates were incubated overnight at 4° C. After the incubation the plates were washed 3 times with wash buffer and incubated with secondary antibody [anti-rabbit IgG, linked to horseradish peroxidase (Amersham Bioscience, NA 934V), diluted 1:2'000 in wash buffer] for 2 h at rt. The plates were washed 3 times with wash buffer and then incubated for 1 h at rt with substrate solution [1.89 mM ABTS (2.2′-azino-di-(3-ethyl-benzthiazolinsulfonate)] (Roche Diagnostics, 102 946) and 2.36 mM H2O2 [30%, (Fluka, 95300] in substrate buffer (0.1M sodium acetate, 0.05M sodium dihydrogen phosphate, pH 4.2). The OD of the plate was read at 405 nm in a microplate reader (FLUOStar Optima from BMG). The production of AngI during the renin reaction was quantified by comparing the OD of the sample with the OD of a standard curve of AngI(1-10), measured in parallel.
2. Primary Renin Inhibition Assay: IC50 in Buffer, 384 well MTP
The renin assay was adapted from an assay described before (Fischli W. et al., Hypertension, 1991, 18:22-31) and consists of two steps: in the first step, recombinant human renin is incubated with its substrate (commercial human tetradecapeptide renin substrate) to create the product Angiotensin I (AngI). In the second step, the accumulated AngI is measured by an immunological assay (enzyme immuno assay, EIA). The detailed description of this assay is found below. The EIA is very sensitive and well suited for renin activity measurements in buffer or in plasma. Due to the low concentration of renin used in this assay (2 fmol per assay tube or 10 pM) it is possible to measure inhibitor affinities in this primary assay down to low pM concentration.
Recombinant human renin (3 pg/μl) in assay buffer (PBS 1×, 1 mM EDTA, 0.1% BSA, pH 7.4), human tetradecapeptide (1-14) substrate (Bachem, M-1120) [5 μM in 10 mM HCl], hydroxyquinoline sulfate (Fluka, 55100) [30 mM in H2O] and assay buffer were premixed at 4° C. at a ratio of 100:30:10:145. 47.5 μl per well of this premix was transferred into polypropylene plates (MTP384, Nunc). […]

| Compound | IC50 |
| --- | --- |
| COc1cccc(CN(C(=O)C2=C(c3cnc(CCCOc4c(Cl)cc(C)cc4Cl)s3)C[C@@H]3CNC[C@H]2N3)C2CC2)c1C (racemic) [Example 21, (rac.)-(1R*, 5S*)-7-{2-[3-(2,6-Dichloro-4-methylphenoxy)propyl]thiazol-5-yl}-3,9-diazabicyclo[3.3.1]non-6-ene-6-carboxylic acid cyclopropyl-(3-methoxy-2-methylbenzyl)amide] | 4.4 nM |
| Cc1ccc(F)c(OCCOc2ncc(C3=C(C(=O)N(Cc4cccc(Cl)c4Cl)C4CC4)[C@H]4CNC[C@@H](C3)N4)s2)c1Cl (racemic) [Example 7, (rac.)-(1R*, 5S*)-7-{2-[2-(2-Chloro-6-fluoro-3-methylphenoxy)ethoxy]thiazol-5-yl}-3,9-diazabicyclo[3.3.1]non-6-ene-6-carboxylic acid cyclopropyl-(2,3-dichlorobenzyl)-amide] | 2.9 nM |
| (rac.)-(1R*, 5S*)-7-{4-[3-(3-Chloro-2,6-difluorophenoxy)propyl]thiazol-2-yl}-3,9-diazabicyclo[3.3.1]non-6-ene-6-carboxylic acid cyclopropyl-(2,3-dichloro-benzyl)amide [Example 3] | 16 nM |
| (rac.)-(1R*, 5S*)-7-{5-[2-(4-Chloro-3,5-dimethylphenoxy)ethyl]-4-methylthiazol-2-yl}-3,9-diazabicyclo[3.3.1]non-6-ene-6-carboxylic acid cyclopropyl-(3-methoxy-2-methylbenzyl)amide [Example 1] | 57 nM |
| Cc1cc(Cl)c(OCCOc2ncc(C3=C(C(=O)N(Cc4cccc(F)c4F)C4CC4)[C@H]4CNC[C@@H](C3)N4)s2)c(Cl)c1 (racemic) [Example 45, (rac.)-(1R*, 5S*)-7-{2-[2-(2,6-Dichloro-4-methylphenoxy)ethoxy]thiazol-5-yl}-3,9-diazabicyclo[3.3.1]non-6-ene-6-carboxylic acid cyclopropyl-(2,3-difluorobenzyl)amide] | 15 nM |
| COc1cccc(CN(C(=O)C2=C(c3cnc(OCCOc4c(Cl)cc(C)cc4Cl)s3)C[C@@H]3CNC[C@H]2N3)C2CC2)c1C (racemic) [Example 35, (rac.)-(1R*, 5S*)-7-{2-[2-(2,6-Dichloro-4-methylphenoxy)ethoxy]thiazol-5-yl}-3,9-diazabicyclo[3.3.1]non-6-ene-6-carboxylic acid cyclopropyl-(3-methoxy-2-methylbenzyl)amide] | 1.3 nM |
| Cc1cc(Cl)c(OCCOc2ncc(C3=C(C(=O)N(Cc4cccc(Cl)c4C)C4CC4)[C@H]4CNC[C@@H](C3)N4)s2)c(Cl)c1 (racemic) [Example 52, (rac.)-(1R*, 5S*)-7-{2-[2-(2,6-Dichloro-4-methylphenoxy)ethoxy]thiazol-5-yl}-3,9-diazabicyclo[3.3.1]non-6-ene-6-carboxylic acid (3-chloro-2-methylbenzyl)cyclopropyl-amide] | 1.1 nM |
| O=C(C1=C(c2nc(CCCOc3cc(C(F)(F)F)ccc3Cl)cs2)C[C@@H]2CNC[C@H]1N2)N(Cc1cccc(Cl)c1Cl)C1CC1 (racemic) [Example 2, (rac.)-(1R*, 5S*)-7-{4-[3-(2-Chloro-5-trifluoromethylphenoxy)propyl]thiazol-2-yl}-3,9-diazabicyclo[3.3.1]non-6-ene-6-carboxylic acid cyclopropyl-(2,3-dichlorobenzyl)amide] | 94 nM |
| Cc1ccc(F)c(OCCCc2coc(C3=C(C(=O)N(Cc4cccc(Cl)c4Cl)C4CC4)[C@H]4CNC[C@@H](C3)N4)n2)c1Cl (racemic) [Example 12, (rac.)-(1R*, 5S*)-7-{4-[3-(2-Chloro-6-fluoro-3-methylphenoxy)propyl]oxazol-2-yl}-3,9-diazabicyclo[3.3.1]non-6-ene-6-carboxylic acid cyclopropyl-(2,3-dichlorobenzyl)-amide] | 46 nM |
